Consider 42 molecules from patent US20170333591A9, “ABSORBENT ARTICLE COMPRISING MALODOR REDUCTION COMPOSITIONS” (The Procter & Gamble Company, priority 2014, published 2017).

Structures are written as SMILES.

A short description of the first data set: Log of liquid dish neat product liquid-air partition coefficient.
Details: not given
It is filed as physicochemical.
In the case of `C=C1C2CCC(C2)C1(C)CCC=C(C)CO` (stereo not drawn) [Material 616], the “Comment Code: Log of liquid dish neat product liquid-air partition coefficient” value (“Comment Code: Log” below) was “K (Log of liquid dish neat product liquid-air partition coefficient greater than or equal to 7)”.

Take `CC12CCCC(O)(C1)C1CC(C)(C)C1CC2` (stereo not drawn) [Material 574]: the “Comment Code: Log” value is reported as “K (Log of liquid dish neat product liquid-air partition coefficient greater than or equal to 7)”. Same read-out and setting: the same measure for `CCOC1CCC(C(C)(C)CC)CC1` (stereo not drawn) [Material 12]: “K (Log of liquid dish neat product liquid-air partition coefficient greater than or equal to 7)”.

As to `C=Cc1ccc(O)cc1` [Material 789], the “Comment Code: Log” value is listed as “K (Log of liquid dish neat product liquid-air partition coefficient greater than or equal to 7)”.

As for `CC=CC(=O)C1C(C)=CCCC1(C)C` (stereo not drawn) [Material 880], the “Comment Code: Log” value is recorded as “K (Log of liquid dish neat product liquid-air partition coefficient greater than or equal to 7)”. Take `CC1(C)C2CCC3(C2)C1C(=O)CCC3(C)C` (stereo not drawn) [Material 1149]: the “Comment Code: Log” value is given as “K (Log of liquid dish neat product liquid-air partition coefficient greater than or equal to 7)”. The same measure, in the same setting: with `CC1CC2CCC3C(C2O1)C(C)(C)C(C)C3(C)C` (stereo not drawn) [Material 1097] the entry was “K (Log of liquid dish neat product liquid-air partition coefficient greater than or equal to 7)”; with `CCCC(=O)OC1CC2CC1C1CC=CC21` (stereo not drawn) [Material 484], “K (Log of liquid dish neat product liquid-air partition coefficient greater than or equal to 7)”. Same read-out and setting: with `CC(C)C(=O)OC1CC2CCC1(C)C2(C)C` (stereo not drawn) [Material 603] the entry was “K (Log of liquid dish neat product liquid-air partition coefficient greater than or equal to 7)”; with `COc1cc(C)cc(O)c1` [Material 811], “K (Log of liquid dish neat product liquid-air partition coefficient greater than or equal to 7)”; with `CC(C)CC(=O)OCc1ccccc1` [Material 645], “K (Log of liquid dish neat product liquid-air partition coefficient greater than or equal to 7)”. Turning to `CC12CCCC(C)(CC1)C2=NO` [Material 921], the “Comment Code: Log” value is recorded as “K (Log of liquid dish neat product liquid-air partition coefficient greater than or equal to 7)”. On the same count and under the same terms, the same measure for `O=COCCc1ccccc1` [Material 956]: “K (Log of liquid dish neat product liquid-air partition coefficient greater than or equal to 7)”; for `CC(C)=CCC/C(C)=C\COC=O` [Material 59]: “K (Log of liquid dish neat product liquid-air partition coefficient greater than or equal to 7)”.

Take `CC1CCOC(c2ccccc2)C1` (stereo not drawn) [Material 420]: the “Comment Code: Log” value is reported as “K (Log of liquid dish neat product liquid-air partition coefficient greater than or equal to 7)”. Same read-out and setting: with `CC(=O)CCc1ccc(O)cc1` [Material 1002] the entry was “K (Log of liquid dish neat product liquid-air partition coefficient greater than or equal to 7)”. The same measure, in the same setting: with `CC(C)c1ccc(CC=O)cc1` [Material 977] the entry was “K (Log of liquid dish neat product liquid-air partition coefficient greater than or equal to 7)”. Still for that read-out and setting: with `C=C[C@](C)(O)CCC=C(C)C` [Material 888] the entry was “K (Log of liquid dish neat product liquid-air partition coefficient greater than or equal to 7)”.

The data set is the same for the next values; noted with them: Comment Code letters K and/or L.
Turning to `CC1(C)C2CCC3(C2)C1C(=O)CCC3(C)C` (stereo not drawn) [Material 1149], the “Log of liquid dish neat product liquid-air partition coefficient (Comment Code K/L)” value (shortened to “Log … (Comment Code K/L)”) is “K (Log of liquid dish neat product liquid-air partition coefficient greater than or equal to 7)”.

Staying with this data set, now noted: code letter within the Comment Code cell.
`CCCCCCCCCCCC(=O)OC(C)C` [Material 197]: the “Log … (Comment Code K/L)” value is “K (Log of liquid dish neat product liquid-air partition coefficient greater than or equal to 7)”. Still for that read-out and setting: with `CCCCCCCCCC(C)C=O` (stereo not drawn) [Material 103] the entry was “K (Log of liquid dish neat product liquid-air partition coefficient greater than or equal to 7)”; with `Cc1ccc2c(c1)CC(C)(CO)C2` (stereo not drawn) [Material 161], “K (Log of liquid dish neat product liquid-air partition coefficient greater than or equal to 7)”; with `C=CCCCCCCCCC(=O)OCC` [Material 381], “K (Log of liquid dish neat product liquid-air partition coefficient greater than or equal to 7)”.

On to `Cc1cccc(Oc2ccccc2)c1` [Material 114], for which the “Log … (Comment Code K/L)” value is recorded as “K (Log of liquid dish neat product liquid-air partition coefficient greater than or equal to 7)”.

For `CC(O)C(C)Cc1ccccc1` (stereo not drawn) [Material 82], the “Log … (Comment Code K/L)” value is given as “K (Log of liquid dish neat product liquid-air partition coefficient greater than or equal to 7)”. On the same count and under the same terms, the same measure for `C=CCc1ccc(OC(C)=O)c(OC)c1` [Material 374]: “K (Log of liquid dish neat product liquid-air partition coefficient greater than or equal to 7)”; for `CC(C=O)Cc1ccc2c(c1)OCO2` (stereo not drawn) [Material 288]: “K (Log of liquid dish neat product liquid-air partition coefficient greater than or equal to 7)”; for `CCc1ccccc1CC(C)(C)C=O` [Material 356]: “K (Log of liquid dish neat product liquid-air partition coefficient greater than or equal to 7)”.

Consider `CCCC(=O)OC1CC2CC1C1CC=CC21` (stereo not drawn) [Material 484], for which the “Log … (Comment Code K/L)” value is given as “K (Log of liquid dish neat product liquid-air partition coefficient greater than or equal to 7)”. As to `CC(CCO)CCCC(C)(C)O` (stereo not drawn) [Material 249], the “Log … (Comment Code K/L)” value is reported as “K (Log of liquid dish neat product liquid-air partition coefficient greater than or equal to 7)”. The same measure, in the same setting: the same measure for `O=C1CCCCCCCCCCCCCCCO1` [Material 277]: “K (Log of liquid dish neat product liquid-air partition coefficient greater than or equal to 7)”; for `CC1=CCC(=C(C)C)CCC(C)=CCC1` [Material 295]: “K (Log of liquid dish neat product liquid-air partition coefficient greater than or equal to 7)”. Still for that read-out and setting: with `CC(=O)c1ccc2ccccc2c1` [Material 120] the entry was “K (Log of liquid dish neat product liquid-air partition coefficient greater than or equal to 7)”; with `C=CCc1ccc(OC)c(OC)c1` [Material 110], “K (Log of liquid dish neat product liquid-air partition coefficient greater than or equal to 7)”.

Regarding `C=CC1(C)CCC(C(C)(C)O)O1` (stereo not drawn) [Material 155], the “Log … (Comment Code K/L)” value is “K (Log of liquid dish neat product liquid-air partition coefficient greater than or equal to 7)”. Same read-out and setting: with `CCCCCCCCCCOC(=O)CC` [Material 471] the entry was “K (Log of liquid dish neat product liquid-air partition coefficient greater than or equal to 7)”; with `C=C1CCCC(C)(C)C1C=CC(C)=O` (stereo not drawn) [Material 324], “K (Log of liquid dish neat product liquid-air partition coefficient greater than or equal to 7)”.

Staying with this data set, now noted: code letters K/L of the Comment Code.
Take `C=C1C2CCC(C2)C1(C)CCC=C(C)CO` (stereo not drawn) [Material 616]: the “Log of liquid dish neat product liquid-air partition coefficient (Comment Code)” value (“Log … (Comment Code)” below) is “K (Log of liquid dish neat product liquid-air partition coefficient greater than or equal to 7)”.

On to `CC12CCCC(O)(C1)C1CC(C)(C)C1CC2` (stereo not drawn) [Material 574], for which the “Log … (Comment Code)” value was “K (Log of liquid dish neat product liquid-air partition coefficient greater than or equal to 7)”. Same read-out and setting: with `C=CC(C)=CCC=C(C)CCC=C(C)C` [Material 710] the entry was “K (Log of liquid dish neat product liquid-air partition coefficient greater than or equal to 7)”; with `C=C1C2CCC(C)(OCC)C1CCC2(C)C` (stereo not drawn) [Material 606], “K (Log of liquid dish neat product liquid-air partition coefficient greater than or equal to 7)”. Take `C=C(C)C1CCC2(C)CCC=C(C)C2C1` (stereo not drawn) [Material 774]: the “Log … (Comment Code)” value is “K (Log of liquid dish neat product liquid-air partition coefficient greater than or equal to 7)”. Same read-out and setting: the same measure for `CCCCCCCCC=CC=O` [Material 828]: “K (Log of liquid dish neat product liquid-air partition coefficient greater than or equal to 7)”; for `CCC(O)COC1CCCCC1C(C)(C)C` (stereo not drawn) [Material 677]: “K (Log of liquid dish neat product liquid-air partition coefficient greater than or equal to 7)”. Still for that read-out and setting: the same measure for `CC(C)c1cccc(C(C)CC=O)c1` (stereo not drawn) [Material 914]: “K (Log of liquid dish neat product liquid-air partition coefficient greater than or equal to 7)”. Still for that read-out and setting: the same measure for `CC1CC2CCC3C(C2O1)C(C)(C)C(C)C3(C)C` (stereo not drawn) [Material 1097]: “K (Log of liquid dish neat product liquid-air partition coefficient greater than or equal to 7)”; for `CC(C)C(=O)OC1CC2CCC1(C)C2(C)C` (stereo not drawn) [Material 603]: “K (Log of liquid dish neat product liquid-air partition coefficient greater than or equal to 7)”. For `CCCC(O)Cc1ccccc1` (stereo not drawn) [Material 730], the “Log … (Comment Code)” value is recorded as “K (Log of liquid dish neat product liquid-air partition coefficient greater than or equal to 7)”.
